Experimental data as given in PubChem BioAssay (NCI).
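Cells were grown in 96-well plates and exposed to each compound for 48 hours at five concentrations; endpoints were interpolated linearly between bracketing concentrations, or set to the highest concentration if not reached. GI50 is the concentration that inhibits growth by half. At the TGI there is no net growth.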

test system: SK-MEL-2 melanoma; assay: NCI-60 cell line screen, 48 h

Structure (SMILES)	TGI [µM]	GI50 [µM]
N#CC1(C2SCCS2=O)C2=C(C(=O)c3ccccc3C2=O)N2CCCC21 (stereo not given)	4.12	
CC(=O)Oc1ccccc1C(=O)N=C1[Se]CCN1C(=O)c1ccccc1OC(C)=O	3.91	1.42
O=C(O)Cc1c(O)ccc2ccccc12	> 100	
O=C1/C(=C\c2cccn2Cc2ccccc2)c2ccccc2N1c1c(Cl)cccc1Cl	> 30.1	2.4
Cc1sc2nc(NCCc3c[nH]c4ccc(Cl)cc34)[nH]c(=O)c2c1C	9.29	2.62
CSC1(CC(=O)N(C)C)C(=O)Nc2ccccc21 (stereo not given)	> 100	
COc1cc(/C=C2\C(=O)Nc3ccc(F)cc32)cc(OC)c1OC	> 100	96.4
C#C[C@]1(O)CC[C@H]2[C@@H]3CC=C4c5sc(Nc6ccccc6)nc5CC[C@]4(C)[C@H]3CC[C@@]21C	5.75	1.61
O=C(O)c1c(-c2nccc3ccccc23)[nH]c(-c2ccccc2)c1S(=O)(=O)O	> 100	
COc1ccc(/C=c2/sc3n(c2=O)C(c2ccc(OC)c(OC)c2)C2=C(N=3)c3cc(F)ccc3OC2)cc1 (stereo not given)	> 92.4	> 45.2
O=C(O)c1cc(O)c2c(c1)C(C1c3cc(C(=O)O)cc(O)c3C(=O)c3c(OC4OC(CO)C(O)C(O)C4O)cccc31)c1cccc(OC3OC(CO)C(O)C(O)C3O)c1C2=O (stereo not given)	> 100	> 100
O=C(CN(C1CCCCC1)C1CCCCC1)Nc1ccc(S(=O)(=O)c2ccc(NC(=O)CN(C3CCCCC3)C3CCCCC3)cc2)cc1	3.5	1.35
O=c1[nH]c2cc(Cl)ccc2n1C1CCN(CCCC(c2ccc(F)cc2)c2ccc(F)cc2)CC1	3.35	1.7
Cc1c[n+](Cc2ccc3ccccc3c2)cn1Cc1ccc2ccccc2c1	3.68	1.85
Nc1nc(Br)nc2c1ncn2C1CC(O)C(CO)O1 (stereo not given)	> 100	> 100
Nc1nc(Nc2ccccc2)c2ncn(Cc3cc4c(cc3Br)OCO4)c2n1	42.3	0.0546
CCOC(=O)N1CCN(C(=O)c2ccc(C(F)(F)F)nc2Nc2cc(Cl)ccc2C)CC1	72.9	22.3
Cc1ccc(Nc2nc(N)c(C(=O)c3ccc(C#N)cc3)s2)cc1	46.1	0.435
C#CC(=O)Nc1cccc(Nc2nc3c(c(NCc4ccccc4)n2)CCCC3)c1	1.98	0.543
CCCCCCCCCc1cc(=O)c2c(O)cccc2o1	64.7	
N#CC1Nc2ccccc2[C@@H](O)C1O (stereo not given in full)	> 100	
CC(C)c1ccccc1S(=O)c1ccccc1C(C)(C)O (stereo not given)	> 100	
CCN(CC)CCNCC(=O)Oc1ccc(/C=C/C(=O)CC(=O)/C=C/c2ccc(OC(=O)CNCCN(CC)CC)c(OC)c2)cc1OC	12.7	3.39
COC(=O)C12C3C4C5(C(=O)OC)C(C1C35C(=O)N(C(C)C)C(C)C)C42C(=O)N(C(C)C)C(C)C (stereo not given)	> 50	
Cc1cc(C)n(CCNCCn2nc(C)cc2C)n1	> 1	
O=C1CSC(Cc2nc3ccccc3[nH]2)=N1	38.4	
CCCS(=O)(=O)Nc1ccc(Nc2c3ccccc3nc3ccccc23)c(OC)c1	7.7	

test system: UO-31 renal; assay: NCI-60 cell line screen, 48 h

Structure (SMILES)	TGI [µM]	GI50 [µM]
N#CC1(C2SCCS2=O)C2=C(C(=O)c3ccccc3C2=O)N2CCCC21 (stereo not given)	14.2	
CC(=O)Oc1ccccc1C(=O)N=C1[Se]CCN1C(=O)c1ccccc1OC(C)=O	1.53	0.424
Cc1n(Cc2ccc3ccccc3c2)cc[n+]1Cc1ccc2ccccc2c1	22	9.26
O=C1/C(=C\c2cccn2Cc2ccccc2)c2ccccc2N1c1c(Cl)cccc1Cl	> 100	3.89
Cc1sc2nc(NCCc3c[nH]c4ccc(Cl)cc34)[nH]c(=O)c2c1C	2.77	1.22
CSC1(CC(=O)N(C)C)C(=O)Nc2ccccc21 (stereo not given)	> 100	
COc1cc(/C=C2\C(=O)Nc3ccc(F)cc32)cc(OC)c1OC	> 100	11.9
C#C[C@]1(O)CC[C@H]2[C@@H]3CC=C4c5sc(Nc6ccccc6)nc5CC[C@]4(C)[C@H]3CC[C@@]21C	2.91	1.43
O=C(O)c1c(-c2nccc3ccccc23)[nH]c(-c2ccccc2)c1S(=O)(=O)O	> 100	
COc1ccc(/C=c2/sc3n(c2=O)C(c2ccc(OC)c(OC)c2)C2=C(N=3)c3cc(F)ccc3OC2)cc1 (stereo not given)	> 77.7	27.6
O=C(O)c1cc(O)c2c(c1)C(C1c3cc(C(=O)O)cc(O)c3C(=O)c3c(OC4OC(CO)C(O)C(O)C4O)cccc31)c1cccc(OC3OC(CO)C(O)C(O)C3O)c1C2=O (stereo not given)	> 100	> 100
O=C(CN(C1CCCCC1)C1CCCCC1)Nc1ccc(S(=O)(=O)c2ccc(NC(=O)CN(C3CCCCC3)C3CCCCC3)cc2)cc1	2.56	1.24
O=c1[nH]c2cc(Cl)ccc2n1C1CCN(CCCC(c2ccc(F)cc2)c2ccc(F)cc2)CC1	2.38	1
Cc1c[n+](Cc2ccc3ccccc3c2)cn1Cc1ccc2ccccc2c1	20.4	5.47
Nc1nc(Br)nc2c1ncn2C1CC(O)C(CO)O1 (stereo not given)	> 100	1.3
Nc1nc(Nc2ccccc2)c2ncn(Cc3cc4c(cc3Br)OCO4)c2n1	> 100	0.129
CCOC(=O)N1CCN(C(=O)c2ccc(C(F)(F)F)nc2Nc2cc(Cl)ccc2C)CC1	> 100	7.82
Cc1ccc(Nc2nc(N)c(C(=O)c3ccc(C#N)cc3)s2)cc1	> 100	0.644
C#CC(=O)Nc1cccc(Nc2nc3c(c(NCc4ccccc4)n2)CCCC3)c1	< 0.01	< 0.01
CCCCCCCCCc1cc(=O)c2c(O)cccc2o1	> 100	
Cc1c(C2Nc3ccccc3C2C)[nH]c2ccccc12 (stereo not given)	22.1	6.27
CCN(CC)CCNCC(=O)Oc1ccc(/C=C/C(=O)CC(=O)/C=C/c2ccc(OC(=O)CNCCN(CC)CC)c(OC)c2)cc1OC	11	3.48
COC(=O)C12C3C4C5(C(=O)OC)C(C1C35C(=O)N(C(C)C)C(C)C)C42C(=O)N(C(C)C)C(C)C (stereo not given)	> 50	
Cc1cc(C)n(CCNCCn2nc(C)cc2C)n1	> 100	
O=C1CSC(Cc2nc3ccccc3[nH]2)=N1	35	
CCCS(=O)(=O)Nc1ccc(Nc2c3ccccc3nc3ccccc23)c(OC)c1	6.47	
CN(C)Cc1c[nH]c2c1C(=O)c1c(c(O)c3ccccc3c1O)C2=O	29.5	8.6

test system: OVCAR-4 ovarian; assay: NCI-60 cell line screen, 48 h

Structure (SMILES)	TGI [µM]	GI50 [µM]
N#CC1(C2SCCS2=O)C2=C(C(=O)c3ccccc3C2=O)N2CCCC21 (stereo not given)	4.09	
CC(=O)Oc1ccccc1C(=O)N=C1[Se]CCN1C(=O)c1ccccc1OC(C)=O	7.24	1.46
Cc1n(Cc2ccc3ccccc3c2)cc[n+]1Cc1ccc2ccccc2c1	6.36	0.381
O=C(O)Cc1c(O)ccc2ccccc12	> 100	
O=C1/C(=C\c2cccn2Cc2ccccc2)c2ccccc2N1c1c(Cl)cccc1Cl	> 60.4	0.196
Cc1sc2nc(NCCc3c[nH]c4ccc(Cl)cc34)[nH]c(=O)c2c1C	13.4	3.27
CSC1(CC(=O)N(C)C)C(=O)Nc2ccccc21 (stereo not given)	> 100	
COc1cc(/C=C2\C(=O)Nc3ccc(F)cc32)cc(OC)c1OC	> 100	60
C#C[C@]1(O)CC[C@H]2[C@@H]3CC=C4c5sc(Nc6ccccc6)nc5CC[C@]4(C)[C@H]3CC[C@@]21C	65.6	3.14
O=C(O)c1c(-c2nccc3ccccc23)[nH]c(-c2ccccc2)c1S(=O)(=O)O	> 100	
COc1ccc(/C=c2/sc3n(c2=O)C(c2ccc(OC)c(OC)c2)C2=C(N=3)c3cc(F)ccc3OC2)cc1 (stereo not given)	> 74.1	> 23.2
O=C(O)c1cc(O)c2c(c1)C(C1c3cc(C(=O)O)cc(O)c3C(=O)c3c(OC4OC(CO)C(O)C(O)C4O)cccc31)c1cccc(OC3OC(CO)C(O)C(O)C3O)c1C2=O (stereo not given)	> 100	> 100
O=C(CN(C1CCCCC1)C1CCCCC1)Nc1ccc(S(=O)(=O)c2ccc(NC(=O)CN(C3CCCCC3)C3CCCCC3)cc2)cc1	2.58	0.942
O=c1[nH]c2cc(Cl)ccc2n1C1CCN(CCCC(c2ccc(F)cc2)c2ccc(F)cc2)CC1	2.9	1.51
Cc1c[n+](Cc2ccc3ccccc3c2)cn1Cc1ccc2ccccc2c1	2.35	0.583
